Source: patent US7012093B2, “Multiple fluorescent natural dye compound from a marine organism and method of use thereof” (Council of Scientific & Industrial Research, priority 2001, dated 2006)
Entries after “also recorded” stand apart in the source; their conditions may differ.

Tests used:
[1] = Stability of the compound cum dye at the sub zero temperatures; type: physicochemical
From the text: In yet another embodiment stability of the compound cum Dye at the sub Zero temperatures is seen. The compound in its diluted form 5×10^−6 was taken in a microfuge tube and kept at −20 degree centigrade and seen in the frozen state under UV light.
The compound in its diluted form 5×10^−6 was taken in a microfuge tube and kept at −20 degree centigrade and seen in the frozen state under UV light.

[2] = Solubility of the compound; type: physicochemical; details: for solubility in organic solvents: ethanol, methanol, acetone
ticks/fleas of dogs = assay: Veterinary remedy: killing ticks/fleas of dogs; type: in vivo, ticks and fleas
From the text: In yet another embodiment, the utility of the dye as a Veterinary remedy for ticks and fleas of pets is seen. The extract is used as veterinary remedy for killing ticks/fleas of dogs. 5×10^−6 concentration of dye in 1:200 dilutions killed ticks and fleas in less than 20 seconds. The extract was used as veterinary remedy for killing ticks/fleas of dogs. 5×10^−8 concentration of the purified compound cum dye killed ticks and fleas in less than 20 seconds.

[3] = pH of the compound and pH sensitivity of emissions; type: physicochemical
Experimental: (§1) The pure hydrogen form of the compound is having the pH of 2.8. The salt form of the compound is stable up to 300° C. without the change of physical and chemical characters. The compound in aqueous solution in a very diluted form (5×10^−6 concentration) is pale yellow in color with the naked eye and the concentrated solution is reddish brown in color.
The dye has a pH of 2.8 and their spectral emissions are not affected at different pH range i.e. from pH 2.8–8.0.

E. coli (wild type) = assay: Anti-microbial test (zone of inhibition, filter paper disk on seeded agar); type: cell-based; details: 10 mg/ml of the sample soaked in filter paper disks, 37° C., 24 hours
Experimental: In yet another embodiment, anti-microbial test of the compound cum dye is done. […] As the marine dye is, a phenolic compound and phenolic compounds are generally having Anti-microbial activity, the anti-microbial assay was performed with this compound and the zone of inhibition was observed. E. coli (wild type) culture was grown overnight in MacConkey's broth 50 ml in a conical flask (100 ml). Antibiotic assay agar medium was prepared and sterilized. It was then brought to a temperature of 50 degree centigrade and 1 ml of E. coli (wild type) culture was added to it. The culture was mixed with antibiotic assay agar medium and was allowed to solidify. 10 mg/ml of the sample was prepared and soaked in filter paper disks. It was then placed upon the said antibiotic assay agar medium seeded with E. coli. It was then incubated at 37° C. in an incubator for 24 hours.

ants = assay: Pesticidal effect (filter paper soaked in the dye); type: in vivo; details: filter paper soaked in the dye left on the workbench; next day full of dead ants
From the text: In yet another embodiment, the pesticidal effect of the compound cum dye is noticed. […] The filter paper soaked in the dye was left unattended on the workbench. Next day it was noticed full of dead ants. […] The filter paper soaked in the dye was left unattended on the workbench. Next day it was noticed full of dead ants.

[4] = Biosurfactant nature (shaking of solutions); type: physicochemical; details: 0.001 mg–0.01 mg per ml solutions
[5] = Stability check of the dye (temperature, shelf life, light); type: physicochemical
Experimental: as §1
The compound retained its stability for about a year without any contamination or chemical decay.

## Phenolic sulphated silicated polysaccharide [PSSP-1]
[1]; diluted form 5×10^−6, −20 degree centigrade, under UV light
  fluorescence in the frozen state: persisted without any deterioration
[1]; frozen in the liquid nitrogen
  fluorescence after freezing in liquid nitrogen: remained unaffected
[2]
  solubility in organic solvents: insoluble in the organic solvents including ethanol, methanol and acetone
  solubility in water: soluble in water
[2]; listed as dye
  solubility in organic solvents: insoluble in the organic solvents like ethanol, methanol and acetone
  solubility in water: more than the solubility characters of Fluorescein; also recorded: highly water-soluble
ticks/fleas of dogs; 5×10^−6 concentration of dye in 1:200 dilutions
  time to kill ticks and fleas: less than 20 seconds
ticks/fleas of dogs; 5×10^−8 concentration of the purified compound cum dye
  time to kill ticks and fleas: less than 20 seconds
[3]
  pH: 2.8
[3]; pH 2.8–8.0
  effect of pH on spectral emissions: not affected
E. coli (wild type); listed as compound cum dye
  zone of inhibition: zone of inhibition is observed
E. coli (wild type); listed as dye
  zone of inhibition: Zone of inhibition surrounding the filter disk was observed
ants
  toxicity to insects: toxic to insects
[4]
  frothing on shaking: frothing was seen
[4]; listed as dye
  frothing on shaking: frothing is seen
[5]; exposure to light, listed as dye
  photolysis after light treatment: does not undergo photolysis after exposure to light; also recorded: did not undergo photolysis after light treatment
[5]; heating, fluorescent spectral properties unchanged
  temperature up to which the dye is stable (no alteration of the spectral property): up to 300 degree Centigrade
[5]; room temperature
  duration of retained stability without contamination or chemical decay: about a year
  persistence of fluorescence at the room temperature: at least 1 year
[5]; room temperature, listed as dye
  duration of retained stability without contamination or chemical decay: above a year
